Species: Rattus norvegicus
Test: In vitro dose required for stimulation of GH release from rat pituitary cells
Format: functional
Conditions: Pituitary gland cell, read-out: ED50 (the source's name)

EC50 [µM]	Structure (SMILES)
8	CC(C)(N)CC(=O)NC1CCCc2ccccc2N(Cc2ccc(-c3ccccc3-c3nn[nH]n3)cc2)C1=O (stereo not given)
2	CC(C)(N)CC(=O)NC1Cc2ccccc2N(Cc2ccc(-c3ccccc3-c3nn[nH]n3)cc2)C1=O (stereo not given)
0.06	CC(C)(N)CC(=O)N[C@@H]1CCc2ccccc2N(Cc2ccc(-c3ccccc3-c3nn[nH]n3)cc2)C1=O
0.16	CC(C)(N)CC(=O)NC1CCc2ccccc2N(Cc2ccc(-c3ccccc3-c3nn[nH]n3)cc2)C1=O [L-158432]
3.2	CC(C)(N)CC(=O)NC1CCc2ccccc2N(Cc2ccc(-c3ccccc3C(=O)O)cc2)C1=O (stereo not given)

Reference: ChEMBL document CHEMBL1127685, “A novel 3-substituted benzazepinone growth hormone secretagogue (L-692,429)” (1994)
